According to patent US20110173718A1, “HERBICIDE TOLERANT PLANTS” (SYNGENTA CROP PROTECTION, INC., priority 2008, published 2011):
Several values for one entry are separate records, joined by “and”; a condition that tells them apart may be missing. Identical values can stand only once. Like-named read-outs stand apart in the source and are kept apart here.

Key:
Type in all cases: in vivo
[1] = tested on: weeds; assay: Glasshouse weed control, HST inhibitors alone and with A22, pre-emergence; details: 14 DAT; for pest or weed control at 15.625 g/ha / pest or weed control at 62.5 g/ha / pest or weed control at 250 g/ha: 336 h
Procedure, shortened: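 Weeds grown in glasshouse trays (24-27 C day, 18-21 C night, ~15 h photoperiod) and track-sprayed in 0.2% X77 at […], pre-emergence or post-emergence at about 7-12 d. HPPD inhibitor A22 applied at 2 g/ha alone or mixed with HST herbicides. Damage scored 0–100% at 14 DAT; synergy calculated by Colby formula.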

[2] = tested on: Arabidopsis HST transgenic tobacco plants; assay: Glasshouse spray test, Arabidopsis HST transgenic tobacco; details: 250 g/ha; for % damaged: 8 DAT
Excerpt: For example the Arabidopsis HST SEQ ID # 11 is cloned behind a double 35s CMV promoter sequence and a TMV translational enhancer sequence and in front of the 3′ terminator from the nos gene. This expression cassette is ligated into pMJB1 (described in WO98/20144) and then into pBIN19 and then transformed into Agrobacterium tuniqfaciens strains LBA4404 prior to plant transformation.
For example, the full length Arabidopsis HST seq ID # 11 is fused to the TMV translational enhancer sequence (SEQ ID #33) by overlapping PCR and, at the same time, 5′ XhoI site and a 3′KpnI site are added by PCR. Site-directed mutagenesis is performed to remove an internal XhoI site. The TMV/HPPD fusion is removed from the pBIN19 by digestion with XhoI/KpnI and is replaced by the TMV/HST fusion (SEQ ID #34). The TMV/HST fusion is now cloned behind a double 35s promoter and in front of the 3′ terminator from the nos gene. Again the modified pBIN19 vector (‘pBinAT HST’) is then transformed into Agrobacterium tumefaciens strain LBA4404.
A master plate of Agrobacterium tumefaciens containing the binary vector pBinAT HST (described above) or analogous binary vector comprising a different HST is used to inoculate 10 ml LB containing 100 mg/1 Rifampicin plus 50 mg/1 Kanamycin using a single bacterial colony. This is incubated overnight at 28° C. shaking at 200 rpm. This entire overnight culture is used to inoculate a 50 ml volume of LA (plus antibiotics). Again this is cultured overnight at 28° C. shaking at 200 rpm. The Agrobacterium cells are pelleted by centrifuging at 3000 rpm for 15 minutes then resuspended in MS medium with 30 g/1 sucrose, pH 5.9 to an OD ([…])=0.6. This suspension is dispensed in 25 ml aliquots into petri dishes.
Clonal micro-propagated tobacco shoot cultures are used to excise young (not yet fully expanded) leaves. The mid rib and outer leaf margins are removed and discarded, the remaining lamina is cut into 1 cm squares. These are transferred to the Agrobacterium suspension for 20 minutes. Explants are then removed, dabbed on sterile filter paper to remove excess suspension then transferred to NBM medium (MS medium, 30 g/1 sucrose, 1 mg/1 BAP, 0.1 mg/1 NAA, pH 5.9, solidified with 8 g/1 Plantagar), with the abaxial surface of each explant in contact with the medium. Approximately 7 explants are transferred per plate, which are then sealed then maintained in a lit incubator at 25° C., 16 hour photoperiod for 3 days.
Explants are then transferred to NBM medium containing 100 mg/1 Kanamycin plus antibiotics to prevent further growth of Agrobacterium (200 mg/1 timentin with 250 mg/1 carbenicillin). Further subculture on to this same medium is then performed every 2 weeks.
As shoots start to regenerate from the callusing leaf explants these are removed to Shoot elongation medium (MS medium, 30 g/1 sucrose, 8 g/1 Plantagar, 100 mg/1 Kanamycin, 200 mg/1 timentin, 250 mg/1 carbenicillin, pH 5.9). Stable transgenic plants readily root within 2 weeks. To provide multiple plants per event to ultimately allow more than one herbicide test per transgenic plant all rooting shoots are micropropagated to generate 3 or more rooted clones.
Putative transgenic plants that are rooting and show vigorous shoot growth on the medium incorporating Kanamycin are analysed by PCR using primers that amplified a 500 bp fragment within the Arabidopsis HST transgene.
Rooted transgenic T0 plantlets are transferred from agar and potted into 50% peat, 50% John Innes soil no 3 or, for example, MetroMix® 380 soil (Sun Gro Horticulture, Bellevue, Wash.) with slow-release fertilizer in 3 inch round or 4 inch square pots and left regularly watered to establish for 8-12 d in the glass house. Glass house conditions are about 24-27° C. day; 18-21° C. night and approximately a 14 h (or longer in UK summer) photoperiod. Humidity is ˜65% and light levels up to 2000 μmol/m^2 at bench level. […]

[3] = tested on: Arabidopsis HST transgenic tobacco plants; assay: as above; details: 25 gai/ha; D2 line (Arabidopsis HST, segregating T1), individual plants
[4] = BRAPL, HST inhibitor rate 15.625 g/ha, read-out: BRAPL Obs, % control score
[5] = BRAPL, HST inhibitor rate 62.5 g/ha, read-out: BRAPL Obs, % control score
[6] = BRAPL, HST inhibitor rate 250 g/ha, read-out: BRAPL Obs, % control score
[7] = PANMI, HST inhibitor rate 15.625 g/ha, read-out: PANMI Obs, % control score
[8] = PANMI, HST inhibitor rate 62.5 g/ha, read-out: PANMI Obs, % control score
[9] = PANMI, HST inhibitor rate 250 g/ha, read-out: PANMI Obs, % control score
[10] = SIDSP, HST inhibitor rate 15.625 g/ha, read-out: SIDSP Obs, % control score
[11] = SIDSP, HST inhibitor rate 62.5 g/ha, read-out: SIDSP Obs, % control score
[12] = SIDSP, HST inhibitor rate 250 g/ha, read-out: SIDSP Obs, % control score
[13] = Digitaria sanguinalis, DIGSA, HST inhibitor rate 15.625 g/ha, read-out: DIGSA Obs, % control score
[14] = Digitaria sanguinalis, DIGSA, HST inhibitor rate 62.5 g/ha, read-out: DIGSA Obs, % control score
[15] = Digitaria sanguinalis, DIGSA, HST inhibitor rate 250 g/ha, read-out: DIGSA Obs, % control score
[16] = Echinochloa crus-galli, ECHCG, HST inhibitor rate 15.625 g/ha, read-out: ECHCG Obs, % control score
[17] = Echinochloa crus-galli, ECHCG, HST inhibitor rate 62.5 g/ha, read-out: ECHCG Obs, % control score
[18] = Echinochloa crus-galli, ECHCG, HST inhibitor rate 250 g/ha, read-out: ECHCG Obs, % control score
[19] = Setaria faberi, SETFA, HST inhibitor rate 15.625 g/ha, read-out: SETFA Obs, % control score
[20] = Setaria faberi, SETFA, HST inhibitor rate 62.5 g/ha, read-out: SETFA Obs, % control score
[21] = Setaria faberi, SETFA, HST inhibitor rate 250 g/ha, read-out: SETFA Obs, % control score

| SMILES | pest or weed control at 15.625 g/ha [1, 4] [%] | pest or weed control at 62.5 g/ha [1, 5] [%] | pest or weed control at 250 g/ha [1, 6] [%] | pest or weed control at 15.625 g/ha [1, 7] [%] | pest or weed control at 62.5 g/ha [1, 8] [%] | pest or weed control at 250 g/ha [1, 9] [%] | pest or weed control at 15.625 g/ha [1, 10] [%] | pest or weed control at 62.5 g/ha [1, 11] [%] | pest or weed control at 250 g/ha [1, 12] [%] | pest or weed control at 15.625 g/ha [1, 13] [%] | pest or weed control at 62.5 g/ha [1, 14] [%] | pest or weed control at 250 g/ha [1, 15] [%] | pest or weed control at 15.625 g/ha [1, 16] [%] | pest or weed control at 62.5 g/ha [1, 17] [%] | pest or weed control at 250 g/ha [1, 18] [%] | pest or weed control at 15.625 g/ha [1, 19] [%] | pest or weed control at 62.5 g/ha [1, 20] [%] | pest or weed control at 250 g/ha [1, 21] [%] | further results |
| --- | --- | --- | --- | --- | --- | --- | --- | --- | --- | --- | --- | --- | --- | --- | --- | --- | --- | --- | --- |
| O=c1c(-c2cc(C(F)(F)F)ccc2Cl)c(O)c2nccnc2n1CC(F)F [Compound 2.9] | 0 | 2 | 50 | 0 | 0 | 60 | 0 | 0 | 40 | 0 | 0 | 65 | 0 | 0 | 60 | 0 | 0 | 30 |  |
| Oc1c(Cl)c(F)nc(F)c1Cl [Compound 1.1, haloxydine] |  |  |  |  |  |  |  |  |  |  |  |  |  |  |  |  |  |  | % damaged ([2]; line E9): 20% and 40%; % damaged ([2]; line F6): 50% and 75%; appearance of plants ([2]; 25 DAT, line E9): healthy and similar sized to untreated control plants; % damage ([2]; 25 DAT, line F6): 50-70%; % damage at 7 DAT [3]: 55% (2×) and 35% and 65% (3×) and 100% and 30% |
| O=c1c(-c2c(Cl)ccc(Cl)c2Cl)c(O)c2nccnc2n1CC(F)F [Compound 2.14] | 0 | 2 | 20 | 0 | 0 | 2 | 0 | 0 | 5 | 0 | 0 | 5 | 0 | 5 | 50 | 0 | 2 | 20 |  |
| O=c1c(-c2c(F)ccc(Br)c2Cl)c(O)c2nccnc2n1CC(F)F [Compound 2.8] | 0 | 1 | 15 | 0 | 0 | 60 | 0 | 0 | 2 | 0 | 0 | 30 | 0 | 2 | 50 | 0 | 0 | 10 |  |
| O=c1c(-c2c(F)ccc(F)c2Cl)c(O)c2nccnc2n1CC(F)F [Compound 2.3] |  |  |  |  |  |  |  |  |  |  |  |  |  |  |  |  |  |  | BRAPL Obs, % control score ([1]; BRAPL, HST inhibitor rate 15.625 g/ha): 0%; BRAPL Obs, % control score ([1]; BRAPL, HST inhibitor rate 62.5 g/ha): 2%; BRAPL Obs, % control score ([1]; BRAPL, HST inhibitor rate 250 g/ha): 40%; DIGSA Obs, % control score ([1]; DIGSA, HST inhibitor rate 15.625 g/ha): 0%; DIGSA Obs, % control score ([1]; DIGSA, HST inhibitor rate 62.5 g/ha): 0%; DIGSA Obs, % control score ([1]; DIGSA, HST inhibitor rate 250 g/ha): 40%; ECHCG Obs, % control score ([1]; ECHCG, HST inhibitor rate 15.625 g/ha): 0%; ECHCG Obs, % control score ([1]; ECHCG, HST inhibitor rate 62.5 g/ha): 10%; ECHCG Obs, % control score ([1]; ECHCG, HST inhibitor rate 250 g/ha): 50%; PANMI Obs, % control score ([1]; PANMI, HST inhibitor rate 15.625 g/ha): 0%; PANMI Obs, % control score ([1]; PANMI, HST inhibitor rate 62.5 g/ha): 0%; PANMI Obs, % control score ([1]; PANMI, HST inhibitor rate 250 g/ha): 50%; SETFA Obs, % control score ([1]; SETFA, HST inhibitor rate 15.625 g/ha): 0%; SETFA Obs, % control score ([1]; SETFA, HST inhibitor rate 62.5 g/ha): 5%; SETFA Obs, % control score ([1]; SETFA, HST inhibitor rate 250 g/ha): 30%; SIDSP Obs, % control score ([1]; SIDSP, HST inhibitor rate 15.625 g/ha): 0%; SIDSP Obs, % control score ([1]; SIDSP, HST inhibitor rate 62.5 g/ha): 0%; SIDSP Obs, % control score ([1]; SIDSP, HST inhibitor rate 250 g/ha): 20% |
| O=c1c(-c2c(F)ccc(Br)c2Cl)c(O)c2cccnc2n1CC(F)F [Compound 2.15] | 0 | 0 | 0 | 0 | 0 | 0 | 0 | 0 | 0 | 0 | 0 | 0 | 0 | 0 | 0 | 0 | 0 | 0 |  |
